# Results as given in a melting point compilation (Tetko et al.; mined from patent text by program, amines drawn as free bases though some values may be those of a salt).
# Residues, ends and D or L forms follow the SMILES beside them. *: point of attachment. Piv = CC(C)(C)C(=O)*
row,Structure (SMILES),melting point [°C]
1,N#Cc1ccc2c(c1)C=C(C(=O)O)C(C(F)(F)F)O2 (centres undefined),102 to 106
2,COC(=O)Nc1nc2cc(C(c3ccc(F)cc3)n3ccnc3C)ccc2[nH]1 (centres undefined),> 300
3,CC(C)C(=O)OCC(COC(=O)C(C)C)OCn1cnc2c(=O)[nH]c(N)nc21,193 to 198
4,COC(=O)CC1=C(C)Cc2ccc(SC)cc21,200 to 210
5,CC(C)c1cccc2c1C(=O)NS2(=O)=O,177
6,Cc1ccc(S(=O)(=O)OCc2cc([N+](=O)[O-])ccc2F)cc1,89 to 91
7,CCCCCCCCC(SCCCCCC)C(=O)Nc1c(OCC)ccc2ncccc12 (centres undefined),88 to 90
8,COCc1c(C(C)=O)ncc2c1c1cc(OCc3ccccc3)ccc1n2S(=O)(=O)c1ccc(C)cc1,173 to 175
9,OCc1c(CO)c(-c2ccncc2)n2c1CCC2,173 to 175
10,CCCOc1ccc(S(=O)(=O)N2CCN(CC)CC2)cc1-c1nc2cc3ncn(Cc4ccccc4Cl)c3cc2c(=O)[nH]1,225 to 226
11,CC(C)c1ccc(N(Cc2ccc(N(C)C)cc2)C(=O)C2CCCc3cc(OCCO)ccc32)cc1 (centres undefined),141
12,CCNC(=O)CC(Cc1cccc2ccccc12)C(=O)NC(Cc1c[nH]cn1)C(=O)NC(CC(C)C)C(O)C(=O)OC (mixture of isomers),103 to 108
13,COc1ccc(C(=O)Nc2ccccc2)cc1NC(=S)Nc1cc(C)cc(C)c1,203 to 205
14,CC(=O)Nc1cccc(C(=O)N[C@@H](C)C(=O)N2CCC[C@H]2C(=O)O)c1C(=O)O,127 to 128
15,O=C(O)c1cnn(CCCCN2CCN(C(c3ccccc3)c3ccccc3)CC2)c1,70 to 74
16,O=C1NCCN1C1CCC(NCC(O)COc2ccc(OCC3CC3)cc2)CC1 (centres undefined),163 to 165
17,CC(=O)n1cc(Cn2ccnc2)c2ccccc21,122
18,COC(=O)C(=O)c1ccc(OCC(=O)c2cccc3ccccc23)cc1,99 to 100
19,CCNC(=O)[C@@H]1CCCN1C(=O)[C@H](C)NC(=O)C(C)(C)C (Piv-Ala-Pro-NHEt),94 to 96
20,Nc1ccc(N2CCCCC2)c(C(=O)O)c1,232 to 235

row,Structure (SMILES),melting point [°C]
1,CCOC(=O)c1onc(O)c1C,133 to 134
2,CCc1cnc2ccnn2c1O,247 to 248
3,Cc1nc2cc3c(cc2c(=O)[nH]1)C(N(C)c1ccc(C(=O)NC(CCC(=O)NC(C(=O)O)c2ccc(CC(=O)O)cc2)C(=O)O)c(F)c1)CC3 (centres undefined),175 to 177
4,CN(C)C=NS(=O)(=O)c1ccc(Br)s1,103 to 105
5,CC(C)(C)OC(=O)C(N)c1ccc(C(=O)O)cc1[N+](=O)[O-] (centres undefined),124 to 126
6,CCCCCCCCCCCCCCCCCc1cc(=O)[nH]c(NC(=N)Nc2ccccc2)n1,164
7,C=CCN(C)C(=S)Nc1ccccc1CC(=O)OC,46 to 47
8,Cc1ccc(C2OC(CO)C(O)C(O)C2O)cc1Cc1ccc(-c2ccc(F)nc2)s1 (centres undefined),130 to 132
9,COc1ccc(C(=O)Nc2ccc(F)c(F)c2)cc1NCc1ccccc1,176 to 178
10,COc1ccccc1OCCN1CCC(Cc2c[nH]c3ccc(F)cc23)CC1,91
11,CC(C)(C)CN1C(=O)C(=O)N(c2cccnc2)C1=S,111 to 113
12,CSc1nccn1N=Cc1cc(C(C)(C)C)c(O)c(C(C)(C)C)c1,181 to 183
13,C=CCSC(Cc1ccc(Cl)cc1Cl)n1ccnc1 (centres undefined),97 to 102
14,C#Cc1cccc([C@H]2C[C@H]2NC(=O)Nc2ccc(Cl)cn2)c1 (racemic),148 to 150
15,CCCn1ncc(C(N)=O)c1N,183 to 185
16,CC(C)[C@H]1NC(=O)[C@H]1N (relative stereo),91 to 93
17,CC(C)n1nc(-c2cccc(Cl)c2)c2ncccc2c1=O,80 to 81
18,N#Cc1cnn2c1N(C(=O)CN1CCC(c3ccccc3)CC1)CC=C2c1cc(Cl)ccc1Cl,199 to 200
19,Nc1cccc(-c2ccc(CCN3CC4C(C3)C4NC(=O)Nc3ccccc3)cc2)n1 (centres undefined),192 to 194
